Test results reported in the supplement of paper PMC10307832.

Assays:
Assay in all cases: relative viability (nuclei count vs DMSO), 5 days (fraction); higher = more cells survive
Zibotentan = compound: COc1nc(C)cnc1NS(=O)(=O)c1cccnc1-c1ccc(-c2nnco2)cc1 [Zibotentan]
How it was run: (§1)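 In 1536-well plates, lung cancer cell lines rested overnight at 37 °C before five library-drug doses (not always all listed), √10 apart, were pinned onto vehicle-anchored plates. Nuclei were counted with MetaXpress from 4× Hoechst images taken after 5 days without medium change. Viability compares treated-well with vehicle-well nuclei as a median over plates, and plates needed control CV below 25% plus at least one doubling to pass.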

[1] = compound: O=c1cc(-c2cccc3c2Sc2ccccc2S3)oc(N2CCOCC2)c1
How it was run: as §1

PRIMA-1MET = compound: COCC1(CO)C(=O)C2CCN1CC2 [PRIMA-1MET]
How it was run: as §1

[2] = compound: C1COCCN1C2=CC(=O)C3=C(O2)C(=CC=C3)C4=CC=CC5=C4SC6=CC=CC=C56
How it was run: as §1

[3] = compound: CCN(CC)CCCCNc1ncc2cc(-c3cc(OC)cc(OC)c3)c(NC(=O)NC(C)(C)C)nc2n1
How it was run: as §1

Cell Line | relative viability (Zibotentan; 0.08 µM) | relative viability (Zibotentan; 0.253 µM) | relative viability (Zibotentan; 0.8 µM) | relative viability (Zibotentan; 2.53 µM) | relative viability ([1]; 0.08 µM) | relative viability ([1]; 0.253 µM) | relative viability ([1]; 0.8 µM) | relative viability ([1]; 2.53 µM) | relative viability ([1]; 8 µM) | relative viability (PRIMA-1MET; 0.2 µM) | relative viability (PRIMA-1MET; 0.6325 µM) | relative viability (PRIMA-1MET; 2 µM) | relative viability (PRIMA-1MET; 6.325 µM) | relative viability (PRIMA-1MET; 20 µM) | relative viability ([2]; 0.01 µM) | relative viability ([2]; 0.03162 µM) | relative viability ([2]; 0.1 µM) | relative viability ([2]; 0.3162 µM) | relative viability ([2]; 1 µM) | relative viability ([3]; 0.01 µM) | relative viability ([3]; 0.03162 µM) | relative viability ([3]; 0.1 µM) | relative viability ([3]; 0.3162 µM) | relative viability ([3]; 1 µM)
SW 900 | 0.918 | 0.75 | 0.851 | 0.921 | 0.622 | 0.892 | 0.942 | 0.809 | 0.774 | 0.984 | 0.757 | 0.637 | 0.804 | 0.0765 | 0.793 | 0.811 | 0.721 | 0.942 | 0.853 | 0.907 | 1.11 | 0.804 | 1.02 | 0.717
SW 1573 | 1.03 | 0.707 | 1.08 | 1.09 | 0.965 | 1.1 | 1 | 0.949 | 1.1 | 1.11 | 0.787 | 0.87 | 0.246 | 0.0301 | 0.981 | 0.998 | 0.985 | 0.952 | 0.938 | 0.932 | 1.01 | 1.09 | 1.02 | 0.906
UMC-11 | 1.01 | 1.01 | 0.951 | 0.978 | 0.998 | 1.18 | 1.09 | 0.916 | 1.25 | 1.05 | 0.887 | 0.848 | 0.97 | 0.944 | 0.986 | 0.952 | 0.982 | 1.02 | 0.989 | 1.03 | 0.915 | 1.01 | 1.01 | 0.98
